Source: US9079866B2, “Flap modulators” (JANSSEN PHARMACEUTICA NV, priority 2013, dated 2015)
Where a name gives a salt, the structure may show the parent alone. Read-outs that look alike come from different tables or passages of the source.

Legend:
human FLAP = human FLAP (Homo sapiens (Human), UniProt P20292); test: FLAP binding assay (HTRF format)
Procedure, shortened: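 Binding of compounds to FLAP read out as HTRF ratio. Values are the mean of two assay plates, each sample run in duplicate per plate.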

[1] = system: leukotriene pathway in human whole blood (LTB4 levels); test: Human whole blood assay (A23187-stimulated LTB4); assay type: cell-based; settings: Homo sapiens, read-out: LTB4 IC50 1:1
Procedure, shortened: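 Single-replicate data from at least one healthy donor: compound pre-incubated 15 min at 37° Celsius in 1:1 RPMI-diluted heparinised blood, followed by 30 min calcium ionophore A23187 (7 μg/mL) challenge at 37° Celsius. LTB4 in plasma quantified by kit; IC50 via 4-parameter equation.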

[2] = human FLAP wild type, HTRF format, average of two plates, duplicates
[3] = human whole blood diluted 1:1 in RPMI, A23187-stimulated LTB4
[4] = human whole blood diluted 1:1, A23187-stimulated
[5] = read-out: FLAP Binding wild type HTRF Ki

Chain of human FLAP (P20292 whole entry): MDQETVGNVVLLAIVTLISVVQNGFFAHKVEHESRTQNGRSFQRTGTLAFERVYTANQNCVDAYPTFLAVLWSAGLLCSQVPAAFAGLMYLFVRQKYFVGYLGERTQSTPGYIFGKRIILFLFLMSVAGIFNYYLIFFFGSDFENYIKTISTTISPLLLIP

Ki (human FLAP; [2]) | IC50 [1, 3] | Ki (human FLAP; wild type FLAP, HTRF format) | IC50 [1, 4] | SMILES | Ki (human FLAP; [5])
164 nM | 4460 nM |  |  | COc1cc(NS(=O)(=O)c2ccccc2-c2ccc(-c3cnc(N)cn3)c(F)c2)nc(OC)n1 [Example 166, 4′-(5-Aminopyrazin-2-yl)-N-(2,6-dimethoxypyrimidin-4-yl)-3′-fluorobiphenyl-2-sulfonamide] | 
 |  | 8 nM | 137 nM | CC(C)Sc1ncccc1-c1ccc(-c2cnc(N)cn2)c(F)c1 [Example 396, 5-(2-Fluoro-4-{2-[(1-methylethyl)sulfanyl]pyridin-3-yl}phenyl)pyrazin-2-amine] | 
2 nM | 88 nM |  |  | CN(C)S(=O)(=O)c1ccccc1-c1ccc(-c2cnc3[nH]ccc3n2)c(F)c1 [Example 370, 3′-Fluoro-N,N-dimethyl-4′-(5H-pyrrolo[2,3-b]pyrazin-2-yl)biphenyl-2-sulfonamide] | 
1 nM | 17 nM |  |  | CCN(CC)S(=O)(=O)c1ccccc1-c1ccc(-c2cnc(N)cn2)c(F)c1 [Example 47, 4′-(5-Aminopyrazin-2-yl)-N,N-diethyl-3′-fluorobiphenyl-2-sulfonamide] | 
1 nM | 11 nM |  |  | Nc1cnc(-c2ccc(-c3ccccc3S(=O)(=O)N(C3CCOCC3)C3CC3)cc2F)cn1 [Example 140, 4′-(5-Aminopyrazin-2-yl)-N-cyclopropyl-3′-fluoro-N-(tetrahydro-2H-pyran-4-yl)biphenyl-2-sulfonamide] | 
 |  | 2 nM | 62 nM | CC(C)(C)NS(=O)(=O)c1ccccc1-c1ccc(-c2cnc(N)cn2)c(F)c1F [Example 462, 4′-(5-Aminopyrazin-2-yl)-N-tert-butyl-2′,3′-difluorobiphenyl-2-sulfonamide] | 
1 nM | > 1000 nM |  |  | Nc1cnc(-c2ccc(-c3ccccc3S(=O)(=O)N[C@H]3CC[C@@H](N)CC3)cc2F)cn1 [Example 134, cis-N-(4-Aminocyclohexyl)-4′-(5-aminopyrazin-2-yl)-3′-fluorobiphenyl-2-sulfonamide] | 
2 nM | 78 nM |  |  | CC(C)(C)NS(=O)(=O)c1ccccc1-c1ccc(-c2cnc(N)nc2)c(F)c1 [Example 305, 4′-(2-Aminopyrimidin-5-yl)-N-(tert-butyl)-3′-fluoro-[1,1′-biphenyl]-2-sulfonamide trifluoroacetic acid salt] | 
 |  | 484 nM | 1170 nM | Nc1cnc(-c2ccc(-c3ccccc3S(=O)(=O)c3nccc(N)n3)cc2F)cn1 [Example 727, 2-{[4′-(5-Aminopyrazin-2-yl)-3′-fluorobiphenyl-2-yl]sulfonyl}pyrimidin-4-amine] | 
26 nM | 144 nM |  |  | CC(C)CS(=O)(=O)c1ccccc1-c1ccc(-c2cnc(N)cn2)c(F)c1 [Example 193, 5-{3-Fluoro-2′-[(2-methylpropyl)sulfonyl]biphenyl-4-yl}pyrazin-2-amine] | 
3 nM | 27 nM |  |  | CC[C@H](CO)NS(=O)(=O)c1ccccc1-c1ccc(-c2cnc(N)cn2)c(F)c1 [Example 86, 4′-(5-Aminopyrazin-2-yl)-3′-fluoro-N-[(1R)-1-(hydroxymethyl)propyl]biphenyl-2-sulfonamide] | 
 |  | 83 nM | 363 nM | CC(C)(C)NC(=O)c1cc(F)ccc1-c1ccc(-c2cnc(N)cn2)c(F)c1 [Example 502, 4′-(5-Aminopyrazin-2-yl)-N-tert-butyl-3′,4-difluorobiphenyl-2-carboxamide] | 
 |  | 2.6 nM | 22.4 nM | CC(C)(CO)NS(=O)(=O)c1ccccc1-c1ccc(-c2ccc(N)nc2)c(F)c1 [Example 665, 4′-(6-Aminopyridin-3-yl)-3′-fluoro-N-(1-hydroxy-2-methylpropan-2-yl)-[1,1′-biphenyl]-2-sulfonamide] | 
 |  | 4 nM | 19 nM | CC(C)(C)NS(=O)(=O)c1ccccc1-c1ccc(-c2cnc3[nH]cnc3c2)c(F)c1 [Example 432, N-tert-Butyl-3′-fluoro-4′-(3H-imidazo[4,5-b]pyridin-6-yl)biphenyl-2-sulfonamide] | 
 |  | 4.6 nM | 107 nM | Nc1cnc(-c2ccc(-c3ccccc3Oc3cc(C4CC4)ncn3)cc2F)cn1 [Example 636, 5-{2′-[(6-Cyclopropylpyrimidin-4-yl)oxy]-3-fluorobiphenyl-4-yl}pyrazin-2-amine] | 
 |  | 12 nM | 50 nM | Cc1ccnc(Oc2ccccc2-c2ccc(-c3cnc(N)cn3)c(F)c2)n1 [Example 545, 5-{3-Fluoro-2′-[(4-methylpyrimidin-2-yl)oxy]biphenyl-4-yl}pyrazin-2-amine] | 
5 nM | 68 nM |  |  | CC(C)(CO)CNS(=O)(=O)c1ccccc1-c1ccc(-c2cnc(N)nc2)c(F)c1 [Example 251, 4′-(2-Aminopyrimidin-5-yl)-3′-fluoro-N-(3-hydroxy-2,2-dimethylpropyl)biphenyl-2-sulfonamide] | 
38 nM | 77 nM |  |  | N#CCCNS(=O)(=O)c1ccccc1-c1ccc(-c2cnc(N)nc2)c(F)c1 [Example 250, 4′-(2-Aminopyrimidin-5-yl)-N-(2-cyanoethyl)-3′-fluorobiphenyl-2-sulfonamide] | 
 |  | 4.4 nM | 21.3 nM | Nc1cnc(-c2ccc(-c3ccccc3CSc3nccc(N)n3)cc2F)cn1 [Example 753, 2-({[4′-(5-Aminopyrazin-2-yl)-3′-fluorobiphenyl-2-yl]methyl}sulfanyl)pyrimidin-4-amine] | 
3 nM | 342 nM |  |  | CC(C)(C)OC(=O)NC1CCCN(S(=O)(=O)c2ccccc2-c2ccc(-c3cnc(N)cn3)c(F)c2)C1 (racemic) [Example 77, racemic tert-Butyl (1-{[4′-(5-aminopyrazin-2-yl)-3′-fluorobiphenyl-2-yl]sulfonyl}piperidin-3-yl)carbamate] | 
1 nM | 34 nM |  |  | Nc1cnc(-c2ccc(-c3ccc(C(F)(F)F)cc3S(=O)(=O)N3CCNC(=O)C3)cc2F)cn1 [Example 209, 4-{[4′-(5-Aminopyrazin-2-yl)-3′-fluoro-4-(trifluoromethyl)biphenyl-2-yl]sulfonyl}piperazin-2-one] | 
 |  | 10.3 nM | 18 nM | Nc1cnc(-c2ccc(-c3cccnc3S(=O)(=O)CC3CCOCC3)cc2F)cn1 [Example 824, 5-(2-Fluoro-4-(2-(((tetrahydro-2H-pyran-4-yl)methyl)sulfonyl)pyridine-3-yl)pyrazin-2-amine formic acid salt] | 
20 nM | 217 nM |  |  | CN(C)S(=O)(=O)Nc1ccccc1-c1ccc(-c2cnc(N)cn2)c(F)c1 [Example 182, N′-[4′-(5-Aminopyrazin-2-yl)-3′-fluorobiphenyl-2-yl]-N,N-dimethylsulfamide] | 
36 nM | 285 nM |  |  | CSCc1ccccc1-c1ccc(-c2cnc(N)cn2)c(F)c1 [Example 235, 5-{3-Fluoro-2′-[(methylsulfanyl)methyl]biphenyl-4-yl}pyrazin-2-amine hydrochloride] | 
 |  | 8.5 nM | 57.5 nM | C[C@H](CO)NC(=O)c1cc(C(F)(F)F)ccc1-c1ccc(-c2cnc(N)cn2)c(F)c1 [Example 785, 2-[4-(5-Aminopyrazin-2-yl)-3-fluoro-phenyl]-N-[(1R)-2-hydroxy-1-methyl-ethyl]-5-(trifluoromethyl)benzamide] | 
4 nM | 42 nM |  |  | Nc1cnc(-c2ccc(-c3ccccc3S(=O)(=O)N3CCC(F)(F)C3)cc2F)cn1 [Example 51, 5-{2′-[(3,3-Difluoropyrrolidin-1-yl)sulfonyl]-3-fluorobiphenyl-4-yl}pyrazin-2-amine] | 
 |  | 4 nM | 106 nM | C[C@@H]([C@@H](O)c1ccccc1)N(C)S(=O)(=O)c1ccccc1-c1ccc(-c2cnc(N)c(F)c2)c(F)c1 [Example 669, 4′-(6-Amino-5-fluoropyridin-3-yl)-3′-fluoro-N-((1S,2S)-1-hydroxy-1-phenylpropan-2-yl)-N-methyl-[1,1′-biphenyl]-2-sulfonamide] | 
 |  | 280 nM | 642 nM | Nc1ncc(-c2ccc(-c3ccc(C(F)(F)F)cc3C(=O)N3CCS(=O)(=O)CC3)cc2F)cn1 [Example 793, [2-[4-(2-Aminopyrimidin-5-yl)-3-fluoro-phenyl]-5-(trifluoromethyl)phenyl]-(1,1-dioxo-1,4-thiazinan-4-yl)methanone] | 
 |  | 133 nM | > 10000 nM | COc1cccc2nc(-c3ccc(-c4ccccc4S(=O)(=O)NC(C)(C)C)cc3F)cn12 [Example 588, N-tert-Butyl-3′-fluoro-4′-(5-methoxyimidazo[1,2-a]pyridin-2-yl)biphenyl-2-sulfonamide] | 

SMILES | Ki (human FLAP; [2]) | IC50 [1, 3] | Ki (human FLAP; wild type FLAP, HTRF format) | IC50 [1, 4] | Ki (human FLAP; [5])
Nc1ncc(-c2ccc(-c3ccccc3S(=O)(=O)N3CCCC(F)(F)C3)cn2)cn1 [Example 679, 5-(5-{2-[(3,3-Difluoropiperidin-1-yl)sulfonyl]phenyl}pyridin-2-yl)pyrimidin-2-amine trifluoroacetic acid salt] |  |  |  | 205 nM | 132 nM
CCS(=O)(=O)Cc1ccccc1-c1ccc(-c2cnc(N)cn2)c(F)c1 [Example 749, 5-{2′-[(Ethylsulfonyl)methyl]-3-fluorobiphenyl-4-yl}pyrazin-2-amine hydrogen chloride salt] |  |  |  | 468 nM | 246 nM
Nc1ncc(-c2ccc(-c3cccnc3S(=O)(=O)C3CCCCC3)cc2F)cn1 [Example 807, 5-(4-(2-(Cyclohexlsulfonyl)pyridin-3-yl)-2-fluorophenyl)pyrimidin-2-amine hydrochloride] |  |  |  | 72.2 nM | 5.8 nM
Nc1ncc(-c2ccc(-c3ccccc3S(=O)(=O)N3CC(O)(C(F)(F)F)C3)cc2F)cn1 [Example 315, 1-((4′-(2-Aminopyrimidin-5-yl)-3′-fluoro-[1,1′-biphenyl]-2-yl)sulfonyl)-3-(trifluoromethyl)azetidin-3-ol] |  | 27 nM |  |  | 1 nM
